Where “and” joins values, the source holds several entries; their conditions need not be identical. Equal entries are not always repeated. Where two headings read alike, the source gives them in different places.
How the values were obtained:
CNGA2TM:A4 = biological target: T1, CNGA2TM:A4 (Rattus norvegicus, UniProt Q00195+Q64359, T539M); assay: Ligand binding, confocal patch-clamp fluorometry; design: key: +: ligand binding to the respective modulatory subunits was either observed or not; −: ligand binding to the respective modulatory subunits was either observed or not; settings: 10 μM; construct CNGA2TM:A4
T1 construct: expressed in transfected cells; host or cells: Xenopus laevis oocytes (cRNA injection), excised patches
Excerpt: The channels to be studied were expressed in Xenopus oocytes. We first tested the subunit composition in our channels when coexpressing different combinations of subunits by single-channel recordings. For CNGA2:A4, CNGA2:B1b and CNGA2:A4:B1b channels we exclusively obtained the specific and easily distinguishable single-channel activity reported earlier when injecting respective amounts of RNA[7][13]. We therefore assumed that the channels formed had always the expected subunit composition. The specific binding of cyclic nucleotides and the activation of the CNG channels were measured in parallel by means of confocal patch-clamp fluorometry in excised patches, using fluorescent cyclic nucleotide derivatives. The method has been described previously.
The ligand binding was measured in macropatches by patch-clamp fluorometry[41][42] combined with confocal microscopy. […] Recordings were performed with an LSM 510 or 710 confocal microscope (Zeiss, Jena, Germany) and were triggered by the ISO3 software (MFK, Niedernhausen, Germany). To distinguish between the fluorescence of the unbound ligands from that of the bound ligands, a second dye, DY647 (Dyomics, Jena, Germany), was added to the bath solution. The 543-nm and 633-nm lines of a He-Ne laser were used to excite fcAMP/fcGMP and DY647, respectively. The method of confocal patch-clamp fluorometry has been described in detail previously.

[1] = system: homotetrameric CNGA2TM (T539M) channels; settings: cited from earlier work
CNGA2RE:A4RE:B1b = biological target: T2, CNGA2RE:A4RE:B1b (Rattus norvegicus, UniProt A0A8I5ZN27+Q00195+Q64359, R430E/R538E); assay: Concentration-activation relationship and activation by fluorescent ligands, patch-clamp; assay type: biochemical
T2 construct: expressed in transfected cells; host or cells: Xenopus laevis oocytes (cRNA injection), excised inside-out patches
Procedure: In order to determine the apparent affinity of the modulatory subunits in heterotetrameric CNGA2:A4:B1b channels for cGMP, we coexpressed each of them with disabled neighbored subunits, generating themselves activation effects only at much higher ligand concentrations. In case of two well-separated current components, this would allow us to determine the EC50 value for the CNGB1b and CNGA4 subunit in functional heterotetrameric channels. Patch-clamp experiments were performed using an Axopatch 200B amplifier (Molecular Devices LLC, CA, U.S.A.) in the inside-out configuration. The patch pipettes for recording of macroscopic currents were pulled from borosilicate glass tubing (outer diameter 2.0 mm, inner diameter 1.0 mm; Hilgenberg GmbH, Germany). […] The patches were formed as pushed inside-out patches. […] Cyclic nucleotide concentration jumps were performed using a double-barreled glass pipette mounted on a piezo-driven device. Intracellular (bath) and extracellular (pipette) solutions contained (mM) 150 KCl, 1 EGTA, 5 Hepes, pH = 7.4 with KOH. […] Currents in the absence of the cyclic nucleotide were subtracted. All patches included in this study were first tested for channel expression in the presence of a saturating ligand concentration. Only patches with large current, i.e. a large number of channels, were included in our statistics. The currents were measured at +10 mV or, if mentioned, at +100 mV. Fits of equations to data points were performed with the 8.1G® software (OriginLab Corporation, Northampton, U.S.A.). Concentration-activation relationships were obtained by relating the actual current amplitude, I, to the maximum current amplitude elicited by a saturating concentration of ligand, Imax, and plotting this ratio as function of the ligand concentration, x.

[2] = system: homotetrameric CNGA2RE (R538E) channels; design: method as in Nache et al., 2012; settings: Equation 1, ref Nache et al., 2012; cited from earlier work
CNGA2RE:A4:B1b channels = biological target: T3, CNGA2RE:A4:B1b channels (Rattus norvegicus, UniProt A0A8I5ZN27+Q00195+Q64359, R538E); assay: Concentration-activation relationship, patch-clamp; assay type: biochemical; settings: for EC50: Equation 2, +100 mV
T3 construct: expressed in transfected cells; host or cells: Xenopus laevis oocytes (cRNA injection), excised inside-out patches
Procedure: In order to consider the combined apparent affinity of CNGA4 and CNGB1b, we measured the concentration-response relationship of CNGA2RE:A4:B1b channels (Fig. 3c; Table 1).
Patch-clamp experiments were performed using an Axopatch 200B amplifier (Molecular Devices LLC, CA, U.S.A.) in the inside-out configuration. The patch pipettes for recording of macroscopic currents were pulled from borosilicate glass tubing (outer diameter 2.0 mm, inner diameter 1.0 mm; Hilgenberg GmbH, Germany). The initial resistance was 0.7–1.3 MΩ. The patches were formed as pushed inside-out patches. […] Cyclic nucleotide concentration jumps were performed using a double-barreled glass pipette mounted on a piezo-driven device. Intracellular (bath) and extracellular (pipette) solutions contained (mM) 150 KCl, 1 EGTA, 5 Hepes, pH = 7.4 with KOH. […] Currents in the absence of the cyclic nucleotide were subtracted. All patches included in this study were first tested for channel expression in the presence of a saturating ligand concentration. Only patches with large current, i.e. a large number of channels, were included in our statistics. The currents were measured at +10 mV or, if mentioned, at +100 mV.
Fits of equations to data points were performed with the 8.1G® software (OriginLab Corporation, Northampton, U.S.A.). Concentration-activation relationships were obtained by relating the actual current amplitude, I, to the maximum current amplitude elicited by a saturating concentration of ligand, Imax, and plotting this ratio as function of the ligand concentration, x. The concentration-activation data were fitted using the Hill equation
For the concentration-activation relationships showing two components, the data points were fitted to the sum of two Hill equations according to
EC50,h, EC50,l, Hh, and Hl are the ligand concentration of half maximum current and the Hill coefficient for the high and low affinity component, respectively. a and (1-a) denote the contribution of the high and low affinity component, respectively.

T2 sequence (Q00195 whole entry R538E): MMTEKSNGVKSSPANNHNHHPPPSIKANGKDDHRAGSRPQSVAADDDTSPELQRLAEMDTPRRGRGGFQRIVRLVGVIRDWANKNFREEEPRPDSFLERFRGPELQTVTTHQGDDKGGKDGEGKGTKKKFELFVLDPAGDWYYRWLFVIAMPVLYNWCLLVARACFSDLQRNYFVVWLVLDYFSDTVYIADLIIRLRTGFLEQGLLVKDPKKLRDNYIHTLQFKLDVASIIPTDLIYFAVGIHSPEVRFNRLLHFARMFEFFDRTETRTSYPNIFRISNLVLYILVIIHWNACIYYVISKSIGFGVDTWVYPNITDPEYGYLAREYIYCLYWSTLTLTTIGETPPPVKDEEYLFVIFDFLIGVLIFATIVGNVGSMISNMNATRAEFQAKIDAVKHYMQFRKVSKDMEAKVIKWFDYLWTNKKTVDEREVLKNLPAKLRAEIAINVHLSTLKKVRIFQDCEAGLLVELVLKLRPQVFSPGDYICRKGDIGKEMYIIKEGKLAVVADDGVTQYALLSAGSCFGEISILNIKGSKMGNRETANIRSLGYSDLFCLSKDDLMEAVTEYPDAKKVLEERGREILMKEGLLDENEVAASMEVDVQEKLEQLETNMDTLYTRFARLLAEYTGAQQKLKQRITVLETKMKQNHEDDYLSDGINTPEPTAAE
T2 sequence (Q64359 whole entry R430E): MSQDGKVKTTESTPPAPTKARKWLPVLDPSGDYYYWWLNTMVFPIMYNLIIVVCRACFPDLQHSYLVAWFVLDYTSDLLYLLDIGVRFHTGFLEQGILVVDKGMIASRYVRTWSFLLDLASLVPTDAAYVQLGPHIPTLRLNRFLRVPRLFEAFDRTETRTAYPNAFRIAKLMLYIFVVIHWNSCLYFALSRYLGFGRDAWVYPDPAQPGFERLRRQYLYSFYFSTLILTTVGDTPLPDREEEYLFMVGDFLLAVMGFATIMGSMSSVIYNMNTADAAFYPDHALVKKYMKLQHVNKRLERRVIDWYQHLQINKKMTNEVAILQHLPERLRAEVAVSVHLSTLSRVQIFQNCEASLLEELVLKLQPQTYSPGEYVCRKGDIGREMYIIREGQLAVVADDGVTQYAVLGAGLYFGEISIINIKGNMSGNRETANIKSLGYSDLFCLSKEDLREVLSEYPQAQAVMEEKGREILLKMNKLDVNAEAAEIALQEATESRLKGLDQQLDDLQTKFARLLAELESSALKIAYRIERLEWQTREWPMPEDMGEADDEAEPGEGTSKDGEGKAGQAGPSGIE
T2 sequence (A0A8I5ZN27 1-858 isoform A0A8I5ZN27-2, stated change not applied): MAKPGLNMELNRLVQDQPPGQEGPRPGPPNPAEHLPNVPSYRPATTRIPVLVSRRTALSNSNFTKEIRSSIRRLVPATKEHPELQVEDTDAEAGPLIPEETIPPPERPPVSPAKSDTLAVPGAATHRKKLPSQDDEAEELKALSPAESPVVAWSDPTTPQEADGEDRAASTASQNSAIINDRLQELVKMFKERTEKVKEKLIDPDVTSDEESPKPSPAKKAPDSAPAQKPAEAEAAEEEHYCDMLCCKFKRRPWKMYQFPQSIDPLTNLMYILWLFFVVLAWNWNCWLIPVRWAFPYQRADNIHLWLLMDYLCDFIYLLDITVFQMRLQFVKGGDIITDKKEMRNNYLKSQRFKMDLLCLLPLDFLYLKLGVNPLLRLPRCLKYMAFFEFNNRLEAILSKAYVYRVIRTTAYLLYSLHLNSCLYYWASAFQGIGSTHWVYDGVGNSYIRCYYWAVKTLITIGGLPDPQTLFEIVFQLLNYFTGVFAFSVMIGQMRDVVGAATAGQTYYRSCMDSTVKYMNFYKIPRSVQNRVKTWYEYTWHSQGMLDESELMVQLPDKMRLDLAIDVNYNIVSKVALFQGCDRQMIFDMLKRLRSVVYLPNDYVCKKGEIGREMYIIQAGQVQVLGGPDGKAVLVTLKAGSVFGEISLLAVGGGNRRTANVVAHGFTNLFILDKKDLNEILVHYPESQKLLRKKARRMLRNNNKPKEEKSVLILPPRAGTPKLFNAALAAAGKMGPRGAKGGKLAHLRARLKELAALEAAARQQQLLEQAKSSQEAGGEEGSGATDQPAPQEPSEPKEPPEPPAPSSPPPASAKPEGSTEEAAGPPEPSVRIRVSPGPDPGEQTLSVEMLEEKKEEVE
T3 sequence (Q00195 whole entry R538E): as the sequence (Q00195 whole entry R538E) above
T3 sequence (Q64359 whole entry): as the sequence (Q64359 whole entry R430E) above, with E430R counted along it
T3 sequence (A0A8I5ZN27 1-858 isoform A0A8I5ZN27-2, stated change not applied): as the sequence (A0A8I5ZN27 1-858 isoform A0A8I5ZN27-2, stated change not applied) above
T1 sequence (Q00195 whole entry T539M): as the sequence (Q00195 whole entry R538E) above, with E538R, T539M counted along it
T1 sequence (Q64359 whole entry): as the sequence (Q64359 whole entry R430E) above, with E430R counted along it

Molecule | Ligand binding to CNGA4 (CNGA2TM:A4) | activation ([1]; 10 μM fcGMP, homotetrameric CNGA2TM) | activation (I/Imax) (CNGA2RE:A4RE:B1b; 10 μM fcGMP, normalized to current at 4 mM cGMP) | EC50 [2] | EC50 ([1]; CNGA2TM, Equation 1, ref Nache et al., 2012) | Hh (CNGA2RE:A4:B1b channels; Hill coefficient of high affinity component, +100 mV) | H1 (CNGA2RE:A4:B1b channels; Hill coefficient of low affinity component, +100 mV) | contribution of the high-affinity component (a) (CNGA2RE:A4:B1b channels; combined contribution of CNGA4 and CNGB1b) | a (contribution of the high affinity component) (CNGA2RE:A4:B1b channels; fraction, Equation 2) | EC50 (CNGA2RE:A4:B1b channels; high affinity component (CNGA4 and CNGB1b combined), read-out: EC50,h) | EC50 (CNGA2RE:A4:B1b channels; low affinity component, read-out: EC50,l) | H1 (CNGA2RE:A4RE:B1b; Hill coefficient of low affinity component, CNGA2RE:A4RE:B1b, +100 mV) | a (contribution of the high affinity component) (CNGA2RE:A4RE:B1b; fraction, CNGA2RE:A4RE:B1b, Equation 2) | EC50 (CNGA2RE:A4RE:B1b; high affinity component (action of CNGB1b), CNGA2RE:A4RE:B1b, Equation 2, +100 mV, read-out: EC50,h) | EC50 (CNGA2RE:A4RE:B1b; low affinity component, CNGA2RE:A4RE:B1b, Equation 2, +100 mV, read-out: EC50,l) | maximum contribution of CNGB1b to channel activation (a) (CNGA2RE:A4RE:B1b; of the maximum channel activity generated by all subunits, CNGA2RE:A4RE:B1b)
8-[DY-547]-AET-cGMP [fcGMP] | + | negligible activation | 1.6 ± 0.4% |  |  |  |  |  |  |  |  |  |  |  |  | 
Nc1nc2c(ncn2[C@@H]2O[C@@H]3COP(=O)(O)O[C@H]3[C@H]2O)c(=O)[nH]1 [cGMP] |  |  |  | 607 µM | 10.4 µM | 1.05 and 1.1 | 1.2 | 89% | 0.89 | 5.7 µM | 733 µM | 1.2 | 0.07 | 3.6 µM | 178 µM | 7.2% and ~ 7%

— publication PMC4942689, “Deciphering the function of the CNGB1b subunit in olfactory CNG channels” (Scientific Reports, 2016)
